Read-outs that look alike come from different tables or passages of the source.
Legend:
A498 = test: NCI60 five-dose screen, Renal Cancer; format: cell-based; conditions: Homo sapiens
UACC-62 = test: NCI60 one-dose screen (10 μM), Melanoma; format: cell-based; conditions: Homo sapiens
LOX IMVI = test: NCI60 five-dose screen, Melanoma; format: cell-based; conditions: Homo sapiens
HCC-2998 = test: NCI60 five-dose screen, Colon Cancer; format: cell-based; conditions: Homo sapiens
EKVX = test: NCI60 five-dose screen, Non-small Cell Lung Cancer; format: cell-based; conditions: Homo sapiens
NCI-H226 = test: NCI60 one-dose screen (10 μM), Non-small Cell Lung Cancer; format: cell-based; conditions: Homo sapiens
HT29 = test: NCI60 five-dose screen, Colon Cancer; format: cell-based; conditions: Homo sapiens, HT-29
OVCAR-5 [1] = test: NCI60 five-dose screen, Ovarian Cancer; format: cell-based; conditions: Homo sapiens
OVCAR-5 [2] = test: NCI60 one-dose screen (10 μM), Ovarian Cancer; format: cell-based; conditions: Homo sapiens, OVCAR-5, read-out: Growth percent rate
MDA-MB-231/ATCC = test: NCI60 one-dose screen (10 μM), Breast Cancer; format: cell-based, human; conditions: Homo sapiens, MDA-MB-231, read-out: Growth percent rate
OVCAR-3 = test: NCI60 one-dose screen (10 μM), Ovarian Cancer; format: cell-based; conditions: Homo sapiens
SR = test: NCI60 one-dose screen (10 μM), Leukemia; format: cell-based; conditions: Homo sapiens, read-out: Growth percent rate
NCI-H23 = test: NCI60 five-dose screen, Non-small Cell Lung Cancer; format: cell-based; conditions: Homo sapiens
CCRF-CEM = test: NCI60 one-dose screen (10 μM), Leukemia; format: cell-based; conditions: Homo sapiens, read-out: Growth percent rate
BT-549 = test: NCI60 one-dose screen (10 μM), Breast Cancer; format: cell-based; conditions: Homo sapiens
UO-31 = test: NCI60 one-dose screen (10 μM), Renal Cancer; format: cell-based; conditions: Homo sapiens, UO-31, read-out: Growth percent rate
U251 = test: NCI60 five-dose screen, CNS Cancer; format: cell-based; conditions: Homo sapiens, U-251
SK-OV-3 [3] = test: NCI60 five-dose screen, Ovarian Cancer; format: cell-based; conditions: Homo sapiens
SK-MEL-2 = test: NCI60 one-dose screen (10 μM), Melanoma; format: cell-based; conditions: Homo sapiens
A549/ATCC = test: NCI60 five-dose screen, Non-small Cell Lung Cancer; format: cell-based; conditions: Homo sapiens
KM12 = test: NCI60 one-dose screen (10 μM), Colon Cancer; format: cell-based, human; conditions: Homo sapiens
NCI/ADR-RES = test: NCI60 one-dose screen (10 μM), Ovarian Cancer; format: cell-based; conditions: Homo sapiens, read-out: Growth percent rate
T-47D = test: NCI60 one-dose screen (10 μM), Breast Cancer; format: cell-based; conditions: Homo sapiens, T47D, read-out: Growth percent rate
HCT-15 = test: NCI60 five-dose screen, Colon Cancer; format: cell-based; conditions: Homo sapiens
MDA-MB-468 [4] = test: NCI60 five-dose screen, Breast Cancer; format: cell-based; conditions: Homo sapiens
SF-539 = test: NCI60 five-dose screen, CNS Cancer; format: cell-based; conditions: Homo sapiens
MCF7 = test: NCI60 five-dose screen, Breast Cancer; format: cell-based; conditions: Homo sapiens
MOLT-4 = test: NCI60 five-dose screen, Leukemia; format: cell-based; conditions: Homo sapiens
OVCAR-8 = test: NCI60 five-dose screen, Ovarian Cancer; format: cell-based; conditions: Homo sapiens
PC-3 = test: NCI60 one-dose screen (10 μM), Prostate Cancer; format: cell-based; conditions: Homo sapiens
SK-MEL-5 = test: NCI60 five-dose screen, Melanoma; format: cell-based; conditions: Homo sapiens
SNB-75 = test: NCI60 one-dose screen (10 μM), CNS Cancer; format: cell-based, human; conditions: Homo sapiens
M14 = test: NCI60 five-dose screen, Melanoma; format: cell-based; conditions: Homo sapiens
786–0 = test: NCI60 five-dose screen, Renal Cancer; format: cell-based; conditions: Homo sapiens
HOP-62 = test: NCI60 five-dose screen, Non-small Cell Lung Cancer; format: cell-based; conditions: Homo sapiens
RPMI-8226 = test: NCI60 five-dose screen, Leukemia; format: cell-based; conditions: Homo sapiens
SF-295 = test: NCI60 five-dose screen, CNS Cancer; format: cell-based; conditions: Homo sapiens
UACC-257 = test: NCI60 five-dose screen, Melanoma; format: cell-based; conditions: Homo sapiens
NCI-H522 = test: NCI60 five-dose screen, Non-small Cell Lung Cancer; format: cell-based; conditions: Homo sapiens
SK-OV-3 [5] = test: NCI60 one-dose screen (10 μM), Ovarian Cancer; format: cell-based; conditions: Homo sapiens
SF-268 = test: NCI60 five-dose screen, CNS Cancer; format: cell-based; conditions: Homo sapiens
DU-145 = test: NCI60 one-dose screen (10 μM), Prostate Cancer; format: cell-based; conditions: Homo sapiens
HL-60(TB) = test: NCI60 five-dose screen, Leukemia; format: cell-based; conditions: Homo sapiens
HOP-92 = test: NCI60 one-dose screen (10 μM), Non-small Cell Lung Cancer; format: cell-based; conditions: Homo sapiens; 10 μM; HOP-92, Non-small Cell Lung Cancer; read-out: Growth percent rate
MDA-MB-468 [6] = test: NCI60 one-dose screen (10 μM), Breast Cancer; format: cell-based; conditions: Homo sapiens; 10 μM; MDA-MB-468, Breast Cancer; read-out: Growth percent rate

## CC[C@]12C=CCN3CC[C@@]4(c5ccc(OC)cc5N(C)[C@H]4[C@@](O)(C(=O)OC)[C@@H]1OC(=O)CCCN1CCN(C(c4ccc(F)cc4)c4ccc(F)cc4)CC1)[C@@H]32 [Compound 25]
A498; A498
  GI50: 5250 nM
UACC-62; UACC-62, read-out: Growth percent rate
  activity at 10 µM: -92.5%
LOX IMVI
  GI50: 1740 nM
HCC-2998; HCC 2998
  GI50: 1660 nM
EKVX
  GI50: 1700 nM
NCI-H226; NCI-H226, read-out: Growth percent rate
  activity at 10 µM: -74.8%
HT29
  GI50: 1910 nM
OVCAR-5 [1]; OVCAR-5
  GI50: 1660 nM
OVCAR-5 [2]
  activity at 10 µM: -92%
MDA-MB-231/ATCC
  activity at 10 µM: -94%
OVCAR-3; OVCAR-3, read-out: Growth percent rate
  activity at 10 µM: -83%
SR
  activity at 10 µM: -43.6%
NCI-H23; NCI-H23
  GI50: 1910 nM
CCRF-CEM
  activity at 10 µM: -29.5%
BT-549; BT-549, read-out: Growth percent rate
  activity at 10 µM: -92.4%
UO-31
  activity at 10 µM: -97.8%
U251
  GI50: 1550 nM
SK-OV-3 [3]; SK-OV-3
  GI50: 1550 nM
SK-MEL-2; SK-MEL-2, read-out: Growth percent rate
  activity at 10 µM: -89.5%
A549/ATCC; A549
  GI50: 2630 nM
KM12; KM12, read-out: Growth percent rate
  activity at 10 µM: -96.9%
NCI/ADR-RES
  activity at 10 µM: -80.8%
T-47D
  activity at 10 µM: -64.6%
HCT-15; HCT-15
  GI50: 1700 nM
MDA-MB-468 [4]; MDA-MB-468
  GI50: 1510 nM
SF-539; SF-539
  GI50: 1660 nM
MCF7; MCF7
  GI50: 1700 nM
MOLT-4; MOLT-4
  GI50: 1450 nM
OVCAR-8; OVCAR-8
  GI50: 2090 nM
PC-3; PC-3, read-out: Growth percent rate
  activity at 10 µM: -72.3%
SK-MEL-5; SK-MEL-5
  GI50: 1550 nM
SNB-75; SNB-75, read-out: Growth percent rate
  activity at 10 µM: -86.4%
M14; M14
  GI50: 1910 nM
786–0; 786-0
  GI50: 1580 nM
HOP-62; HOP-62
  GI50: 1620 nM
RPMI-8226; RPMI-8226
  GI50: 1950 nM
SF-295; SF-295
  GI50: 1700 nM
UACC-257; UACC-257
  GI50: 1740 nM
NCI-H522; NCI-H522
  GI50: 1700 nM
SK-OV-3 [5]; SK-OV-3, read-out: Growth percent rate
  activity at 10 µM: -72.5%
SF-268; SF-268
  GI50: 1700 nM
DU-145; DU-145, read-out: Growth percent rate
  activity at 10 µM: -94.4%
HL-60(TB); HL-60
  GI50: 1550 nM

## CC[C@]12C=CCN3CC[C@@]4(c5ccc(OC)cc5N(C)[C@H]4[C@@](O)(C(=O)OC)[C@@H]1OC(=O)CCC(=O)N1CCN(C(c4ccc(F)cc4)c4ccc(F)cc4)CC1)[C@@H]32 [Compound 31]
A498; A498, Renal Cancer, five-dose screen, read-out: GI50
  GI50: 2380 nM
UACC-62; 10 μM, UACC-62, Melanoma, read-out: Growth percent rate
  activity at 10 µM: -84.3%
LOX IMVI; Melanoma, five-dose screen, read-out: GI50
  GI50: 1800 nM
HCC-2998; HCC-2998, Colon Cancer, five-dose screen, read-out: GI50
  GI50: 1240 nM
NCI-H226; 10 μM, NCI-H226, Non-small Cell Lung Cancer, read-out: Growth percent rate
  activity at 10 µM: -32.4%
HT29; HT29, Colon Cancer, five-dose screen, read-out: GI50
  GI50: 1760 nM
OVCAR-5 [1]; OVCAR-5, Ovarian Cancer, five-dose screen, read-out: GI50
  GI50: 2180 nM
OVCAR-3; 10 μM, OVCAR-3, Ovarian Cancer, read-out: Growth percent rate
  activity at 10 µM: -71%
NCI-H23; NCI-H23, Non-small Cell Lung Cancer, five-dose screen, read-out: GI50
  GI50: 2700 nM
CCRF-CEM; 10 μM, Leukemia
  activity at 10 µM: -81.9%
HOP-92
  activity at 10 µM: -44.9%
BT-549; 10 μM, BT-549, Breast Cancer, read-out: Growth percent rate
  activity at 10 µM: -60.6%
U251; U251, CNS Cancer, five-dose screen, read-out: GI50
  GI50: 2780 nM
SK-OV-3 [3]; SK-OV-3, Ovarian Cancer, five-dose screen, read-out: GI50
  GI50: 2020 nM
SK-MEL-2; 10 μM, SK-MEL-2, Melanoma, read-out: Growth percent rate
  activity at 10 µM: -85.4%
A549/ATCC; A549/ATCC, Non-small Cell Lung Cancer, five-dose screen, read-out: GI50
  GI50: 2670 nM
KM12; 10 μM, KM12, Colon Cancer, read-out: Growth percent rate
  activity at 10 µM: -50.8%
NCI/ADR-RES; 10 μM, Ovarian Cancer
  activity at 10 µM: -62.1%
HCT-15; HCT-15, Colon Cancer, five-dose screen, read-out: GI50
  GI50: 2450 nM
MDA-MB-468 [4]; MDA-MB-468, Breast Cancer, five-dose screen, read-out: GI50
  GI50: 1200 nM
MDA-MB-468 [6]
  activity at 10 µM: -69.1%
SF-539; SF-539, CNS Cancer, five-dose screen, read-out: GI50
  GI50: 2020 nM
MCF7; MCF7, Breast Cancer, five-dose screen, read-out: GI50
  GI50: 1740 nM
MOLT-4; MOLT-4, Leukemia, five-dose screen, read-out: GI50
  GI50: 1350 nM
OVCAR-8; OVCAR-8, Ovarian Cancer, five-dose screen, read-out: GI50
  GI50: 3180 nM
PC-3; 10 μM, PC-3, Prostate Cancer, read-out: Growth percent rate
  activity at 10 µM: -28.5%
SK-MEL-5; SK-MEL-5, Melanoma, five-dose screen, read-out: GI50
  GI50: 1840 nM
SNB-75; 10 μM, SNB-75, CNS Cancer, read-out: Growth percent rate
  activity at 10 µM: -43.5%
M14; M14, Melanoma, five-dose screen, read-out: GI50
  GI50: 3550 nM
786–0; 786–0, Renal Cancer, five-dose screen, read-out: GI50
  GI50: 2470 nM
HOP-62; HOP-62, Non-small Cell Lung Cancer, five-dose screen, read-out: GI50
  GI50: 2550 nM
RPMI-8226; RPMI-8226, Leukemia, five-dose screen, read-out: GI50
  GI50: 1420 nM
SF-295; SF-295, CNS Cancer, five-dose screen, read-out: GI50
  GI50: 2110 nM
UACC-257; UACC-257, Melanoma, five-dose screen, read-out: GI50
  GI50: 2700 nM
NCI-H522; NCI-H522, Non-small Cell Lung Cancer, five-dose screen, read-out: GI50
  GI50: 2040 nM
SK-OV-3 [5]; 10 μM, SK-OV-3, Ovarian Cancer, read-out: Growth percent rate
  activity at 10 µM: -15.6%
SF-268; SF-268, CNS Cancer, five-dose screen, read-out: GI50
  GI50: 2980 nM
DU-145; 10 μM, DU-145, Prostate Cancer, read-out: Growth percent rate
  activity at 10 µM: -3.52%
HL-60(TB); HL-60(TB), Leukemia, five-dose screen, read-out: GI50
  GI50: 1930 nM

From PMC11277489, “Novel Piperazine Derivatives of Vindoline as Anticancer Agents” (International Journal of Molecular Sciences, 2024)
